Measurements: patent US20120115157A1, “Methods for Screening for Antibiotic Compounds” (Trustees of Dartmouth College, priority 2009, published 2012)
≈ marks a conversion by molar mass, not a printed value.

System: S. aureus
Test: Minimum Inhibitory Concentration (MIC), inhibition of growth of S. aureus in vitro
Type: cell-based
Conditions: Staphylococcus aureus
Source text: The next step will be to test the drugs for activity in vitro to inhibit growth of bacterial cells and determination of minimum inhibitory concentration (MIC) doses for the drugs. Determining MIC doses is a standard assay in development of antibiotic drugs and methods are well known in the art. For example, MIC can be determined according to the Clinical and Laboratory Standards Institute guidelines.
Once the compounds of the present invention were identified through the MazEF screening assay described above, the activity of the compounds to inhibit growth of S. aureus in vitro was tested using the standard method of determining Minimum Inhibitory Concentrations (MICS). Such methods are well known to those of skill in the art since determining MIC doses is a standard assay in development of antibiotic drugs. For example, MIC values can be determined according to the Clinical and Laboratory Standards Institute guidelines. In Table 1, the MIC values are presented for each of the ten compounds identified through the MazEF screening assay as having potential for antibiotic activity in S. aureus.

Row | Structure (SMILES) | MIC [µg/mL]
1 | COc1ccc(/C=C\C(=O)C2C(=O)c3ccccc3C2=O)cc1 [Compound 10] | 100 (≈ 326 µM)
2 | O=C1c2ccccc2-c2onc3ccc(Cl)c1c23 [Compound 5, 5-chloro-6H-anthra[1,9-cd]isoxazol-6-one] | 6.25 (≈ 24.4 µM)
3 | CN(C)c1ccc(/C=C2\SC(=S)N(C(Cc3ccccc3)C(=O)O)C2=O)cc1 (centres unmarked) [Compound 1, 2-{5-[4-(dimethylamino)benzylidene]-4-oxo-2-thioxo-1,3-thiazolidin-3-yl}-3-phenylpropanoic acid] | 12.5 (≈ 30.3 µM)
4 | Cc1ccc(Nc2nc3nonc3nc2N)c(C)c1 [Compound 4, N-(2,4-dimethylphenyl)[1,2,5]oxadiazolo [3,4-b]pyrazine-5,6-diamine] | 12.5 (≈ 48.8 µM)
5 | CCN1CCc2c(sc(NC(=O)Nc3ccc(Cl)cc3)c2C(N)=O)C1 [Compound 9, 2-({[(4-chlorophenyl)amino]carbonyl}amino)-6-ethyl-4,5,6,7-tetrahydrothieno[2,3-c]pyridine-3-carboxamide] | 100 (≈ 264 µM)
